Assay results taken from patent US10676436B2, “NLRX1 ligands” (Landos Biopharma, Inc., priority 2018, dated 2020).

How the values were obtained:
[1] = target: T1, mutated NLRX1 protein (D677A, F680A, F681A, E684A) (Homo sapiens, UniProt Q86UT6, D677A/E684A/F680A/F681A); assay: Surface plasmon resonance binding to NLRX1-Mutant
T1 construct: made in house; host or cells: Pichia pastoris (by 'similar methods')
Protocol: NLRX1 production and purification. Human NLRX1 (www.uniprot.org; UniProtKB—Q86UT6 (NLRX1 HUMAN)) was cloned into E. coli, amplified and transfected in Pichia pastoris. P. pastoris was plated onto adenine selective media. Stable transfected colonies were selected and grown within YPD broth at 30° C. for 24 hours, 240 RPM shaking. Starter culture was used to inoculate base media (1% yeast extract, 2% peptone, 1% sorbitol, 2% yeast nitrogen base) containing biotin and buffered with potassium phosphate. Inoculated base media was incubated for 48 hours at 30° C., 240 RPM. P. pastoris was then pelleted by centrifugation and resuspended in expression media (1% sorbitol, 2% yeast nitrogen base) containing biotin and buffered with potassium phosphate. Culture was induced daily for protein production through addition of methanol and incubated for a total of 4 days at 28° C., 240 RPM. After incubation, cells were pelleted by centrifugation and lysed by sonication. Recombinant NLRX1 protein was purified by fast protein liquid chromatography (AktaPrime) using immobilized metal affinity chromatography. Fractions of protein were eluted in 1 mL aliquots and evaluated for NLRX1 content. A mutated NLRX1 protein was generated using similar methods to disrupt binding within the predicted binding site through altering four residues to alanine (D677A, F680A, F681A, and E684A).
A Biacore T200 was used to evaluate binding to the NLRX1 protein. NLRX1-WT and NLRX1-Mutant were used as proteins to immobilize onto the CM5 sensor chip. NLRX1-WT was diluted in 10 mM sodium acetate buffer at pH 4.0 and immobilized onto the flow cell to a level of ˜3700 RU, using standard amine coupling chemistry. NLRX1-Mutant was diluted in 10 mM sodium acetate buffer at pH 4.0 and immobilized onto the flow cell to a level of ˜3100 RU, using standard amine coupling chemistry. 20 mM MOPS, 150 mM NaCl, 5 mM sodium acetate, 1 mM EDTA, 0.05% Tween-20, pH 8.0 buffer (Running buffer) was used as the immobilization running buffer. Based on the immobilized response values, theoretical Rmax values were calculated. […]

DSS model of colitis = DSS model of colitis (acute model of IBD); assay type: in vivo, mice
Protocol: Mice were given 8% (w/v) DSS in drinking water for seven days to induce disruption of the epithelial layer. At project initiation, mice were 8 weeks of age and began dosing 24 hours after being placed on 8% DSS. Mice were weighed and scored daily for symptoms of disease (diarrhea, rectal bleeding, rectal inflammation, overall behavior). Treatment administration. NX-13 was prepared within a 0.5% methylcellulose (12-15 cP) solution. Dosage used was 20 mg/kg delivered once daily. Mice were weighed on a weekly basis to update dosage formulation. Dosage was calculated based off mean body weights for each gender. Oral dosage was delivered by orogastric gavage of dosage in 0.2 mL volume. Colons were collected into RPMI/FBS buffer containing collagenase (300 U/mL) and DNase (50 U/mL) for digestion. Tissues were digested for 60 minutes under stirring at 37° C. Resultant cellular suspensions were filtered through 100 μm strainers, centrifuged (300×g, 8 min), and washed in fresh RPMI. Following filtration of the resulting single cell suspensions, immune cells were purified by Percoll gradient of cell-containing 40% Percoll overlayed onto 70% Percoll solution. After centrifugation, interphase was collected and washed to obtain enriched colonic lamina propria cell fractions. Cells were labeled with mixtures of extracellular (CD45, CD3, CD4, CD8, CD19, NK1.1, CD25, F4/80, CD11b, Gr1, CX3CR1, CD64) and intracellular (Tbet, RORγT, FOXP3, IFNγ, IL17, IL10) antibodies in a sequential live staining in 96-well plates. Data was acquired using a FACS Celesta flow cytometer with FACSDiva software. Total RNA from colon and cells was generated using the Qiagen RNeasy mini kit. cDNA was generated using the BioRad iScript cDNA synthesis kit. Standard curves were generated by serial dilution of purified product from a standard PCR reaction with Taq DNA polymerase followed by purification using the Qiagen MinElute PCR purification kit. Expression levels were obtained from quantitative real-time PCR with SybrGreen supermix on a BioRad CFX96 Thermal cycler followed by normalization to expression of β-actin.

[2] = system: MDR1a−/− model of colitis; assay: MDR1a−/− model of colitis (chronic model of IBD); assay type: in vivo, mice
Protocol: MDR1a−/− model. Mice deficient in MDR1a spontaneously develop colitis. MDR1a−/− began receiving NX-13 treatment (oral, 20 mg/kg) at 4 weeks of age and continued treatment until 10 weeks of age. Mice were weighed and scored weekly. NX-13 was prepared within a 0.5% methylcellulose (12-15 cP) solution. Dosage used was 20 mg/kg delivered once daily. Mice were weighed on a weekly basis to update dosage formulation. Dosage was calculated based off mean body weights for each gender. Oral dosage was delivered by orogastric gavage of dosage in 0.2 mL volume. Colons were collected into RPMI/FBS buffer containing collagenase (300 U/mL) and DNase (50 U/mL) for digestion. Tissues were digested for 60 minutes under stirring at 37° C. Resultant cellular suspensions were filtered through 100 μm strainers, centrifuged (300× g, 8 min), and washed in fresh RPMI. Following filtration of the resulting single cell suspensions, immune cells were purified by Percoll gradient of cell-containing 40% Percoll overlayed onto 70% Percoll solution. After centrifugation, interphase was collected and washed to obtain enriched colonic lamina propria cell fractions. Cells were labeled with mixtures of extracellular (CD45, CD3, CD4, CD8, CD19, NK1.1, CD25, F4/80, CD11b, Gr1, CX3CR1, CD64) and intracellular (Tbet, RORγT, FOXP3, IFNγ, IL17, IL10) antibodies in a sequential live staining in 96-well plates. Data was acquired using a FACS Celesta flow cytometer with FACSDiva software. H&E stained colonic sections were prepared from portions of colons collected into 10% buffered formalin and embedded in paraffin. Slides were examined by a board-certified veterinary pathologist via an Olympus microscope and images were collected with Image-Pro software. Samples were scored (0-4) for leukocytic infiltration, epithelial erosion and mucosal thickening.

[3] = day 7 of DSS challenge, qRT-PCR, normalized to beta-actin
[4] = oral 20 mg/kg, day 7 of DSS challenge, flow cytometry
[5] = six weeks of treatment, flow cytometry

T1 sequence (Q86UT6 87-975 D677A/F680A/F681A/E684A): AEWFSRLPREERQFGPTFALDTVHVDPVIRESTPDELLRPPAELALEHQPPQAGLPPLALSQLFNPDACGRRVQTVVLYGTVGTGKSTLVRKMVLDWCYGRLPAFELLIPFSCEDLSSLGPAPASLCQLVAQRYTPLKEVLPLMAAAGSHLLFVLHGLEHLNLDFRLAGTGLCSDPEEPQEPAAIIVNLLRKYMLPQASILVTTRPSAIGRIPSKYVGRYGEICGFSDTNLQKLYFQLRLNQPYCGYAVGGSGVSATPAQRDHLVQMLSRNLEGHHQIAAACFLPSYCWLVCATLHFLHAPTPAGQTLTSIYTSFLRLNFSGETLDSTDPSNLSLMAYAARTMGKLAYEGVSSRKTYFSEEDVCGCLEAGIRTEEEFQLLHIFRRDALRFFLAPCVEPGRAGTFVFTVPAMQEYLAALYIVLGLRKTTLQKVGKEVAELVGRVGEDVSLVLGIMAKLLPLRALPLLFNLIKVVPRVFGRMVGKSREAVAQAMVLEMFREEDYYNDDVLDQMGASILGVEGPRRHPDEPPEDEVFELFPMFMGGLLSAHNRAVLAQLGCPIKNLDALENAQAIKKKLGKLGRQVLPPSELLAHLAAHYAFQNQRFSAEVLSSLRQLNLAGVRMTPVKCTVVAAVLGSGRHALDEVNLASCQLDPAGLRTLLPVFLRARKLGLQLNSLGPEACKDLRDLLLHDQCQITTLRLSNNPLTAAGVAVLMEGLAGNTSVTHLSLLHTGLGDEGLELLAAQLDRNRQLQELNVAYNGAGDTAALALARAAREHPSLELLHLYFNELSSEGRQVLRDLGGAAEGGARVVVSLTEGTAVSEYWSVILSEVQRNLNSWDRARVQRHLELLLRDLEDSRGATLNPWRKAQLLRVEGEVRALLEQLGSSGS

## Cc1cccc(Oc2cc(Oc3cccc(C)n3)cc(Oc3cccc(C)n3)c2)n1 [NX-13, 1,3,5-tris (6-methylpyridin-2-yloxy) benzene]
[1]
  binding to the mutated NLRX1 protein: Loss of binding
DSS model of colitis; [3]
  expression of Ifng in the whole colon: reduced
  expression of Tnfa in the whole colon: reduced
DSS model of colitis; oral 20 mg/kg once daily, day 6
  maximal observed reduction of disease activity: 50%
DSS model of colitis; oral 20 mg/kg, colon
  number of FOXP3+ regulatory CD4+ T cells: did not reduce
DSS model of colitis; [4]
  reduction of Th1 cells in the colonic lamina propria: more than 50%
  reduction of neutrophils in the colonic lamina propria: more than 50%
[2]; after six weeks of treatment
  development of leukocyte aggregates and thickening of the mucosa: protected against
  overall leukocytic infiltration and epithelial erosion: reduced
[2]; oral 20 mg/kg once daily, week six of treatment
  maximal observed reduction of disease activity: 70%
[2]; oral, six weeks of treatment, H&E
  colonic pathology: greatly reduced
[2]; [5]
  numbers of F4/80hi macrophages: greatly reduced
  numbers of IL-17 and IFNγ producing T cells: greatly reduced
  proportions of Th1 cells in the colonic lamina propria: reduces
  proportions of neutrophils in the colonic lamina propria: reduces
  proportions of regulatory CD4+ T (Treg) cells in the colon: increased
